Values of other authors as cited in article PMC11996792, “First-in-human study of CPL’116 – a dual JAK/ROCK inhibitor – in healthy subjects” (Frontiers in Pharmacology, 2025).
Read-outs that look alike come from different tables or passages of the source.

Q: For `O=S(=O)(c1cccc2c(O)nccc12)N1CCCNCC1` [hydroxyfasudil], which mean half-life (ref Wolff et al., 2024) is on record?
A: 5.5 to 5.7 h

Q: What does the source list for `CCS(=O)(=O)N1CC(CC#N)(n2cc(-c3ncnc4[nH]ccc34)cn2)C1` [baricitinib]?
A: mean half-life (ref Shi et al., 2014): 8.5 h; mean half-life (ref Zhao et al., 2020): 5.8 to 7.4 h

Q: With `CC(C)NC(=O)COc1cccc(-c2nc(Nc3ccc4[nH]ncc4c3)c3ccccc3n2)c1` [belumosudil] as the molecule, how does the mean half-life (ref Schueller et al., 2024) read?
A: 7.5 to 10.9 h

Q: Which mean half-life (ref Mohamed et al., 2016) does the source give for `CC[C@@H]1CN(C(=O)NCC(F)(F)F)C[C@@H]1c1cnc2cnc3[nH]ccc3n12` [upadacitinib] here?
A: 5.9 to 14.5 h

Q: Which mean half-life (extended-release formulation, ref Lamba et al., 2016) does the source give for `C[C@@H]1CCN(C(=O)CC#N)C[C@@H]1N(C)c1ncnc2[nH]ccc12` [tofacitinib] here?
A: 5.9 h

Q: What about the mean half-life (immediate formulation, ref Lamba et al., 2016) of the same molecule?
A: 3.2 h
